Laboratory results reported in patent US7332492B2, “Amino substituted dibenzothiophene derivatives for the treatment of disorders mediated by NP Y5 receptor” (AstraZeneca AB, priority 2000, dated 2008).

Target: T1, human neuropeptide Y5 receptor (Homo sapiens, UniProt Q15761)
T1 construct: starting at base 56 through to base 1393, to express the protein 10 amino acid residues shorter at the amino terminal end; made in house; host or cells: High 5 insect cells (baculovirus, pFASTBAC1 / Bac-to-Bac); membrane preparation
T1 sequence (Q15761 1-445): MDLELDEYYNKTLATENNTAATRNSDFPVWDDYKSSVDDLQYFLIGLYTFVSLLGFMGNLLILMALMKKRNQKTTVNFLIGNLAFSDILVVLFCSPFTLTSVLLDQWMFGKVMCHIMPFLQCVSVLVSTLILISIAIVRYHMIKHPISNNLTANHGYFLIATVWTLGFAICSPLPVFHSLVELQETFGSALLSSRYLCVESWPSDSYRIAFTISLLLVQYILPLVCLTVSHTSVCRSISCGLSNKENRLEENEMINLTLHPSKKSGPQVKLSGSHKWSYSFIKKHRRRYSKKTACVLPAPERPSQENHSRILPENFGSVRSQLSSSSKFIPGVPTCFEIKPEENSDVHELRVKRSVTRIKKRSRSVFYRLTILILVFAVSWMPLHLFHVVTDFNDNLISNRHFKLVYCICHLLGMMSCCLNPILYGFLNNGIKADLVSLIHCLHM
Test: neuropeptide Y5 receptor binding assay (125I PYY displacement)
Details: 125I PYY binding, membranes of High 5 insect cells expressing human NPY5 receptor
Experimental: The activity of compounds of the invention was measured in a neuropeptide Y5 receptor binding assay as follows. Compounds were also tested in binding assays for the neuropeptide Y1 and neuropeptide Y2 receptors. Activity against these 2 receptors is contraindicated for a neuropeptide Y5 antagonist.
a) Expression of Human Neuropeptide Y5 Receptor in High 5™ Insect Cells.
High 5™ insect cells were obtained from Invitrogen (catalogue No B855-02) and stored in liquid nitrogen. Cells were revived from liquid nitrogen storage and grown at 28° C. in 100 ml ExCell 405 (JRH Biosciences) serum free medium in a 250 ml conical flask (Corning) agitated at 140 rpm in an Innova 4330 orbital shaker (New Brunswick Scientific). Cultures were routinely sub-cultured every 3-4 days.
High 5™ insect cells were transfected with the human NPY5 receptor as follows. PCR primers were designed against the huNPY5 receptor sequence, Genbank Accession Number U56079 [Gerald et. al. (1996) Nature 382, 168-171], but starting at base 56 through to base 1393, to express the protein 10 amino acid residues shorter at the amino terminal end [see Borowsky et. al. (1998) Regulatory Peptides 75-76, 45-53]. These primers were used to amplify the huNPY5 receptor from human placenta genomic DNA by PCR. […]

IC50: 0.094 µM
SMILES: CC(CN1CCOCC1)C(=O)Nc1ccc2sc3ccccc3c2c1 (stereo not shown) [Example 16]
